From patent publication US9072777B2, “Method for screening substance having proangiogenic effect” (priority 2005, dated 2015)
Ends that are not written are not given here.

Key:
[1] = system: lower extremity ischemia model mouse; test: lower extremity ischemia model mouse (laser Doppler perfusion imaging, wound healing, new vessels); assay type: in vivo
Procedure: Mouse lower extremity ischemia model was prepared as follows.
C3H mice were anesthetized with nembutal and then skin of one side of lower extremity was cut open to expose artery of lower extremity. The lower extremity ischemia model was prepared by ligating artery of lower extremity at upper groin and lower popliteal region and resecting the artery of lower extremity at this region. The recovery of the blood flow after the resection of the artery of lower extremity by the development of the collateral circulation was observed.
C3H mice at the age of 6 months were divided into three groups; AM administration group, VEGF administration group, and control group. Mice of AM treatment group was continuously injected with AM (50 ng/h) by osmotic pump. Each mouse of VEGF administration group was injected with 20 μl of VEGF (5 ng/h) intramuscularly and used as positive control. Mice of control group were injected with PBS continuously.
The blood flow in the lower extremity ischemia model was monitored using laser Doppler perfusion imaging. The effect of AM on wound healing was also investigated. […] In FIG. 4, almost no blood flow in ischemic lower limb was observed on the first day of ischemic model preparation ([…] day 0).
The increasing of the number of new intramuscular blood vessel at the side of operation was also observed (FIG. 6, panel B). In contrast, in AM heterozygous knockout mice (AM +/−), and the mice administered with “AM 22-52”, a truncated form of AM consisting of from 22 to 52 amino acid sequence (AM antagonist), suppression of the recovery of blood flow and the angiogenesis were observed (FIG. 7). In FIG. 7, the mark “**” denotes p<0.01. Hereinafter the same.

[2] = system: claudin 5; test: claudin 5 gene expression in HUVEC cultured on Matrigel, real-time PCR; assay type: cell-based, human
Procedure: (1) Adrenomedullin was administered exogenously to HUVEC cultured on Matrigel. After stimulating for 24 hours, the cell was recovered and RNA was extracted. The expression of claudin 5 gene was investigated using real-time PCR technique.
(2) “AM 22-52”, a truncated form of AM consisting of from 22 to 52 amino acid sequence was administered to HUVEC cultured on Matrigel to investigate the gene expression level.

[3] = system: Akt; test: phosphorylation of Akt in HUVEC, Western Blot; assay type: cell-based, human; details: AM 10^-11 to 10^-7 M in combination with VEGF 10 ng/ml
Procedure: (§1) Single administration of AM (10^−11 to 10^−7 M) alone, or administration of AM in combination with VEGF (10 ng/ml) to the cultivating system of human umbilical vein endothelial cell was carried out. Protein was extracted from cells and the phosphorylation of Akt and eNOS was investigated using Western Blot analysis.

[4] = system: eNOS; test: phosphorylation of eNOS in HUVEC, Western Blot; assay type: cell-based, human; details: AM 10^-11 to 10^-7 M in combination with VEGF 10 ng/ml
Procedure: as §1

[5] = system: VEGF; test: expression of VEGF in femoral muscle of lower extremity ischemia model mouse, Western Blot; assay type: in vivo; details: AM administration group vs control
Procedure: The lower extremity ischemia model mouse prepared as in Example 2 was sacrificed by cervical dislocation, then femoral muscle sampled, from which protein was extracted and Western Blot analysis was conducted.

[6] = system: VEGF; test: expression of VEGF in human artery endothelial cell (HAEC), RT-PCR; assay type: cell-based; details: AM concentration and stimulation time dependence
Procedure: Also, the expression of VEGF in human artery endothelial cell (HAEC) was analyzed using RT-PCR.

[7] = system: AM heterozygous knockout mice (AM +/-); test: rescue test using AM heterozygous knockout mice (lower extremity ischemia model); assay type: in vivo, mouse; details: for formation of new blood vessel: AM +/- mice supplemented with AM or VEGF; for recovery of blood flow / angiogenesis effect: AM +/- mice supplemented with exogenous AM or VEGF
Procedure: Rescue test using AM knockout mouse may also be carried out. In the lower-extremity ischemia model prepared from the AM knockout mouse with decreased expression level of AM, angiogenesis potency decreases. When AM is administered exogenously to the AM knockout mouse, recovery of angiogenesis potency may be observed. This is referred to as “rescue test”.
In this example, The lower extremity ischemia model mice were prepared as in Example 2, and the recovery of blood flow of the AM heterozygous knockout mice (AM +/−) supplemented with exogenous AM or VEGF.

[8] = system: Flk-1 knockout mice; test: rescue test using Flk-1 knockout mice (lower extremity ischemia model); assay type: in vivo, mouse
Procedure: On the other hand, supplementation of AM to Flk-1, a receptor of VEGF knockout mice was conducted as a rescue test opposite to that mentioned above. The recovery of blood flow in Flk-1 knockout mice decreased in comparison with wild-type.

[9] = system: angiogenesis enhancing factors and adhesion factor gene expression; test: gene array of sample from lower extremity ischemia model mice; assay type: in vivo, mouse
Description: In this Example, the gene group of which expression level changes by the administration of AM were monitored by gene array using the sample form the lower extremity ischemia model mice

[10] = system: HUVEC; test: in vitro vascular permeability assay (FITC-dextran through HUVEC monolayer); assay type: cell-based, human
Procedure: In vitro vascular permeability assay is an assay in which the cells are cultured in the insert placed on the culture plate with semi-permeable membrane at the bottom to form monolayer, then the substance is added to the insert and the extent of permeability into the plate through the cell monolayer is measured. In particular, the extent of permeability is measured by addition of the substance for the vascular permeability test such as AM, followed by the addition of dextran labeled with FITC onto the cell monolayer, allowing it to permeate through the monolayer, and the fluorescence intensity in the plate well solution is measured. Thus, the suppression activity of AM on the vascular permeability may be investigated.
An insert made of semi-permeable membrane was placed on a cultivation plate, in which HUVEC was cultured so that the cells formed monolayer (EBM-2 medium, 5% CO2, 37° C., 24 hours). The extent of permeability was measured by addition of the substance for the vascular permeability test to the plate on which cell were cultured, followed by the addition of dextran labeled with FITC onto the cell monolayer, allowing it to permeate through the monolayer, and the fluorescence intensity in the plate well solution was measured.

[11] = system: lower extremity edema model mice; test: lower extremity edema model mice by topical injection of carrageenan; assay type: in vivo, mouse; details: continuous administration of AM; carrageenan to pad of foot
Procedure: Transient edema may be prepared by topical injection of carrageenan, a hyperosmotic substance to pad of foot of mouse. Magnitude of the edema thus formed was evaluated by measuring the thickness of feet pad from time to time.

[12] = system: cerebral edema model mice; test: cerebral edema model (cold injury of dura mater); assay type: in vivo, mouse; details: AM administration group vs control
Procedure: Mice were anesthetized with nembutal and then skull was opened. Injury was provided by contacting a cylinder cooled to −80° C. against dura mater. After 24 hours, mice were sacrificed, brain was removed and the increasing in the weight of the brain due to the cerebral edema was quantified. In the similar cerebral edema model, fluorescent-labeled dextran was injected into the tail vein and the leakage of the fluorescence dye out of the vessel in brain was quantified using fluorescent plate reader.

[13] = mice administered with AM 22-52
[14] = gene array, AM administration group vs control group

AM 22-52: a truncated form of AM consisting of from 22 to 52 amino acid sequence (AM antagonist) (TVQKLAHQIYQFTDKDKDNVAPRSKISPQGY; ends and bridges not checked; UniProt P35318 116-146, looked up, fragment) [reference compound]
angiogenesis [1, 13]: suppression
recovery of blood flow [1, 13]: suppression
expression of claudin 5 [2]: decreased

Adrenomedullin [AM]
wound, amputation and shortening of lower limb ([1]; AM 50 ng/h, vs control group): Reduction of wound and decreasing in the number of amputation and shortening of lower limb
percentage of the mice in which the lower limb is normal or with slight wound ([1]; AM administration group): more than 80%
number of mice in which the lower limb was amputated or with severe wound ([1]; AM administration group vs control group): smaller than that in the control group
blood flow in ischemic lower limb ([1]; Day 7 and 12 after ischemia, AM 50 ng/h): recovery of blood flow was observed
number of new intramuscular blood vessel at the side of operation ([1]; administration of AM): increasing
recovery of the blood flow, ratio ischemic side (L) / non-ischemic side (R) (L/R) ([1]; administration of AM): significant recovery in the blood flow
recovery of the blood flow of lower extremity ([1]; laser Doppler perfusion imaging, AM 50 ng/h continuously by osmotic pump, C3H mice): Improvement in the recovery of the blood flow
phosphorylation of Akt by VEGF [3]: enhanced
phosphorylation of eNOS by VEGF [4]: enhanced
expression level of VEGF [5]: increased from the early stage after the ischemia operation (day 1)
expression level of VEGF [6]: increased concentration- and time dependently
formation of new blood vessel [7]: recovered to the level comparable to the wild-type
recovery of blood flow / angiogenesis effect [7]: recovery of the angiogenesis effect
recovery of blood flow ([8]; exogenous AM to Flk-1 knockout mice): no recovery of blood flow
recovery of blood flow ([8]; exogenous AM to wild-type mice): enhance the recovery of blood flow
expression levels of eNOS, Osteopontin, VEGF, VCAM-1 and the like ([9]; administration of AM in comparison with control group): increased
COL18A1 expression, AM(+)/Control [9, 14]: 2.72
Osteopontin expression, AM(+)/Control [9, 14]: 1.93
PAI-1 expression, AM(+)/Control [9, 14]: 1.79
PDGF-A expression, AM(+)/Control [9, 14]: 5.60
PDGFRβ expression, AM(+)/Control [9, 14]: 1.58
TGFβ expression, AM(+)/Control [9, 14]: 4.04
Tie-2 expression, AM(+)/Control [9, 14]: 3.61
VCAM-1 expression, AM(+)/Control [9, 14]: 3.65
VEGF expression, AM(+)/Control [9, 14]: 1.50
eNOS expression, AM(+)/Control [9, 14]: 1.71
β-glycan expression, AM(+)/Control [9, 14]: 6.76
vascular permeability (FITC-dextran through cell monolayer) ([10]; AM in addition to VEGF): suppressed the enhancement of vascular permeability by VEGF
vascular permeability (FITC-dextran through cell monolayer) ([10]; substance alone): suppression of vascular permeability
formation of edema at lower limb (thickness of feet pad) [11]: suppressed
vascular permeability in brain (leakage of fluorescent-labeled dextran) [12]: suppressed in comparison with control
weight of brain ([12]; 24 hours after injury): decreased
expression of claudin 5 [2]: enhanced

vascular endothelial growth factor [VEGF]
formation of new blood vessel [7]: recovered to the level comparable to the wild-type
recovery of blood flow / angiogenesis effect [7]: recovery of the angiogenesis effect
vascular permeability (FITC-dextran through cell monolayer) ([10]; substance alone): enhanced vascular permeability
